Experimental data from ChEMBL document CHEMBL1134040, “Allyl and propargyl substituted penam sulfones as versatile intermediates toward the syntheses of new beta-lactamase inhibitors” (Bioorg Med Chem Lett, 2001).
Converted amounts (≈) assume the structure as drawn.

What was measured:
Beta-lactamase = Beta-lactamase (Escherichia coli K-12, UniProt P00811); experiment: In vitro inhibitory concentration against AmpC enzyme
[1] = target: Metallo-beta-lactamase type 2 (Bacteroides fragilis, UniProt P25910); experiment: In vitro inhibitory concentration against CCRA enzyme
Beta-lactamase TEM = Beta-lactamase TEM (Escherichia coli, UniProt P62593); experiment: In vitro inhibitory concentration against TEM-1 enzyme
Escherichia coli [2] = experiment: In vitro antibacterial activity against TEM-1 producing Escherichia coli (GC2206); format: functional
Escherichia coli [3] = experiment: In vitro antibacterial activity against AmpC producing Escherichia coli (GC2894); format: functional

Sequence of Beta-lactamase (P00811 whole entry): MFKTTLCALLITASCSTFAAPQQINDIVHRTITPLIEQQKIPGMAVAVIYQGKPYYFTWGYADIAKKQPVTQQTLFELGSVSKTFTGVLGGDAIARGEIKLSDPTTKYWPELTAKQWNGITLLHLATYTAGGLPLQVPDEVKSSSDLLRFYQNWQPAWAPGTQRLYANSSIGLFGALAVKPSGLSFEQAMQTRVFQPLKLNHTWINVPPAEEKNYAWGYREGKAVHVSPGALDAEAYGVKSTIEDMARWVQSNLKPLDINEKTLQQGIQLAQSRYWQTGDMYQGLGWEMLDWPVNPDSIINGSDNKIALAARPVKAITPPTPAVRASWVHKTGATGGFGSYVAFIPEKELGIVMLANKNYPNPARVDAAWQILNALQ
Sequence of Metallo-beta-lactamase type 2 (P25910 whole entry): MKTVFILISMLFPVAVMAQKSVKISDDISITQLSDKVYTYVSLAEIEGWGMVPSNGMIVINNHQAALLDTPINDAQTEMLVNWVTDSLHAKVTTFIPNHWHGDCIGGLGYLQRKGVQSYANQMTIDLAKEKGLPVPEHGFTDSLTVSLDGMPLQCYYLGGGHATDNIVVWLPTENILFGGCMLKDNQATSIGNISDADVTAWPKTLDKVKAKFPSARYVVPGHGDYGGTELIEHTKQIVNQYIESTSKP
Sequence of Beta-lactamase TEM (P62593 whole entry): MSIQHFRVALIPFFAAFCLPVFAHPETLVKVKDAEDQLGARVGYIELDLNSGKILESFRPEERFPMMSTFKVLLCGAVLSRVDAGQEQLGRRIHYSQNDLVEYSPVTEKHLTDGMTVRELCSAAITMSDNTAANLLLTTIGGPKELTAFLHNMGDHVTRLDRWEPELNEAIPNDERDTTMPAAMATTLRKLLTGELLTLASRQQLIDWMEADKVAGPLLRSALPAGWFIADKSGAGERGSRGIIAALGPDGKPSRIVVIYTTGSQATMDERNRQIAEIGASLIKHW

SMILES	IC50 (Beta-lactamase)	IC50 [1]	IC50 (Beta-lactamase TEM)	MIC (Escherichia coli [2])	MIC (Escherichia coli [3])
CC1(C)[C@H](C(=O)O)N2C(=O)[C@@H](Cc3cn(CC(N)Cc4ccc(O)cc4)nn3)[C@H]2S1(=O)=O (some centres undefined)	6.6 µM	24 µM	15 µM		
CC1(C)[C@H](C(=O)O)N2C(=O)C(C/C=C/C#N)[C@@H]2S1(=O)=O (some centres undefined)	> 100 µM	3.1 µM	24 µM		
CON(C)C(=O)/C=C/CC1C(=O)N2[C@@H](C(=O)O)C(C)(C)S(=O)(=O)[C@H]12 (some centres undefined)	17 µM	> 100 µM			
CC1(C)[C@H](C(=O)O)N2C(=O)[C@@H](Cc3cn(-c4ccc(N)cc4)nn3)[C@H]2S1(=O)=O	1.4 µM	1.8 µM	0.6 µM	32 µg/mL (≈ 78.9 µM)	64 µg/mL (≈ 158 µM)
CC1(C)[C@H](C(=O)O)N2C(=O)[C@@H](Cc3cn(-c4ccccc4)nn3)[C@H]2S1(=O)=O	3.4 µM	> 100 µM	1 µM		
COC(=O)/C=C/CC1C(=O)N2[C@@H](C(=O)O)C(C)(C)S(=O)(=O)[C@@H]12 (some centres undefined)	64 µM	1.4 µM	2.8 µM		
CC1(C)[C@H](C(=O)O)N2C(=O)[C@@H](Cc3cn(CC4CCCN4)nn3)[C@H]2S1(=O)=O (some centres undefined)	5.2 µM	22 µM	7.9 µM		
CC1(C)[C@H](C(=O)O)N2C(=O)[C@@H](Cc3cn(-c4ccc(O)cc4)nn3)[C@H]2S1(=O)=O	2.3 µM	2.1 µM	0.7 µM		
CC1(C)[C@H](C(=O)O)N2C(=O)C(C/C=C/C=O)[C@H]2S1(=O)=O (some centres undefined)	17 µM	> 100 µM	12 µM		
CC1(C)[C@H](C(=O)O)N2C(=O)[C@@H](Cc3cn(-c4ccc(F)cc4)nn3)[C@H]2S1(=O)=O	3 µM	4.1 µM	1.6 µM		
CC(=O)/C=C/CC1C(=O)N2[C@@H](C(=O)O)C(C)(C)S(=O)(=O)[C@H]12 (some centres undefined)	100 µM	71 µM	8.4 µM		
COC(=O)/C=C/CC1C(=O)N2[C@@H](C(=O)O)C(C)(C)S(=O)(=O)[C@H]12 (some centres undefined)	29 µM	> 100 µM	8.6 µM		
CC(=O)/C=C/CC1C(=O)N2[C@@H](C(=O)O)C(C)(C)S(=O)(=O)[C@@H]12 (some centres undefined)	40 µM	3 µM	6.5 µM		
CCN1CCN(C(=O)N[C@@H](C(=O)N[C@@H]2C(=O)N3[C@@H]2SC(C)(C)[C@@H]3C(=O)O)c2ccccc2)C(=O)C1=O [PIPERACILLIN]				> 64 µg/mL	> 64 µg/mL
C[C@]1(Cn2ccnn2)[C@H](C(=O)O)N2C(=O)C[C@H]2S1(=O)=O [TAZOBACTAM]				2 µg/mL (≈ 6.66 µM)	16 µg/mL (≈ 53.3 µM)
